Data on 17 molecules can be found in patent publication US20120295920A1, “5-AMINO-4-HYDROXYPENTOYL AMIDES” (priority 2009, published 2012).

Series [1] relates to HIV-1 wild-type strain. The series is described as follows: General antiviral assay, cell-based virus replication in MT4-LTR-EGFP cells, wild-type strain. The settings on record: wild-type strain IIIB, MT4-LTR-EGFP cells. In a few lines:
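HIV LTR-driven EGFP reporter MT4 cells (150,000 cells/ml) infected at MOI 0.0025 with or without inhibitor at various concentrations. Read-out either GFP fluorescence on day 3 post-infection or resazurin cell viability on day 4.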

Series [2] concerns HIV-1 Strain A (M046I, I084V). Description: microbe, parasite or virus in culture. In kind it is cell-based. The settings on record: clinical isolate Strain A; read-out: A EC50. In a few lines:
(§1)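 MT4 cells stably carrying an HIV LTR-driven EGFP reporter (150,000 cells/ml) were infected at MOI 0.0025 with or without inhibitor dilutions. Replication was read either as GFP fluorescence on day 3 post-infection or as cell viability by resazurin on day 4.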

For series [3], the system named is HIV-1 Strain B (M046I, I050V). Description: microbe, parasite or virus in culture. In kind it is cell-based. The settings on record: clinical isolate Strain B; read-out: B EC50. In a few lines:
as §1

Series [4] relates to HIV-1 Strain C (G048G/V, V082A). Description: microbe, parasite or virus in culture. The class given is cell-based. The settings on record: clinical isolate Strain C; read-out: C EC50. In short, it runs like this:
as §1

In series [5] the test system is mock-infected MT4 cells. The series is described as follows: General toxicity assay on mock-infected MT4 cells with CMV-EGFP reporter (CC50). The class given is cell-based.
Series [6] has as its system HIV-1 IIIB. The series is described as follows: 50% HS-Rezazurin: antiviral assay in the presence of 50% human serum, MT-4 cells, resazurin cell viability. The class given is cell-based. In short, it runs like this: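 MT-4 cells infected with HIV-1 IIIB (MOI 0.001 to 0.01 CCID50/cell) for 1 h, washed, then plated onto serial compound dilutions in 50% human serum (10% FCS alternative). After 4 days, EC50 derived from resazurin cell viability.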
In general terms: Resazurin is reduced to fluorescent resorufin, in cell work by metabolically active cells.

The mark [7] stands for this setting: MT4LTR cells, read-out: TOX-MT4LTR (CC50).
[8] abbreviates: mock-infected MT4 cells with CMV-EGFP reporter, read-out: TOX-MT4CMV (CC50).

Each structure is given as a SMILES string. Read-outs that look alike come from different tables or passages of the source.

A word on the EC50: it is the concentration at which the effect is half-maximal. Usually CC50 stands for the concentration that lowers cell viability or growth by half. With `COc1ccc(-c2ccc(C[C@H](NC(=O)O[C@H]3CO[C@H]4OCC[C@H]43)[C@@H](O)C[C@@H](Cc3ccccc3Cl)C(=O)N[C@H]3c4cc(Cl)ccc4OC[C@H]3O)cc2)cn1` [Compound 78], the half-maximal effective concentration (EC50) in series [1] was 2.1 nM; in series [2], 1.9 nM; in series [3], 1.4 nM; in series [4] it was 0.9 nM; in series [6] it was 10.6 nM. The cytotoxic concentration (CC50) in series [5] (setting [7]) is more than 32000 nM.
Regarding `COc1ccc(-c2ccc(C[C@H](NC(=O)O[C@H]3CO[C@H]4OCC[C@H]43)[C@@H](O)C[C@@H](Cc3ccccc3F)C(=O)N[C@H]3c4cc(Cl)cc(F)c4OC[C@H]3O)cc2)cn1` [Compound 81], the EC50 in series [1] came to 4.1 nM; in series [2], 2.8 nM; in series [3], 2.4 nM; in series [4], 1.3 nM; in series [6], 13.4 nM. Moreover, in series [5] (setting [7]), the CC50 is more than 32000 nM.
For the molecule `CNC(=O)[C@@H](NC(=O)[C@H](Cc1ccccc1F)C[C@H](O)[C@H](Cc1ccc(-c2ccc(OC)nc2)cc1)NC(=O)[C@@H](NC(=O)OC)C(C)(C)C)C(C)(C)C` [Compound 88], the EC50 in series [1] stood at 3.4 nM; in series [2] it was 4.8 nM; in series [3], 2.8 nM; in series [4], 3 nM; in series [6], 9.9 nM. Besides, in series [5] (setting [8]), the CC50 is more than 32000 nM.
As for `COC(=O)N[C@H](C(=O)N[C@@H](Cc1ccc(-c2ccc(OC)nc2)cc1)[C@@H](O)C[C@@H](Cc1ccccc1Cl)C(=O)N[C@H]1c2ccccc2OC[C@H]1O)C(C)(C)C` [Compound 37], the concentration for a half-maximal effect (EC50) in series [1] came to 1.7 nM; in series [2], 2.5 nM; in series [3] it was 0.9 nM; in series [4] it was 0.8 nM; in series [6], 4.6 nM. Also, the CC50 in series [5] (setting [7]) and in series [5] (setting [8]) was more than 32000 nM in each case.
On to `CCc1ncc(-c2ccc(CC(NC(=O)C(NC(=O)OC)C(C)(C)C)C(O)CC(Cc3ccccc3F)C(=O)NC3c4cc(Cl)ccc4OCC3O)cc2)s1` (stereo not shown) [Compound 14], for which the half-maximal effective concentration (EC50) in series [1] was 3 nM; in series [2], 3.5 nM; in series [3], 2.1 nM; in series [4], 1.3 nM; in series [6] it was 24.6 nM. The half-maximal cytotoxic concentration (CC50) in series [5] (setting [8]) is more than 32000 nM.
As for `COC(=O)N[C@H](C(=O)N[C@@H](Cc1ccc(-c2cnc(N(C)C)nc2)cc1)[C@@H](O)C[C@@H](Cc1ccccc1F)C(=O)N[C@H]1c2cc(Cl)ccc2OC[C@H]1O)C(C)(C)C` [Compound 43], the EC50 stood at 2 nM in series [1]; 1.7 nM in series [2]; 1 nM in series [3]; 1.1 nM in series [4]; 10.6 nM in series [6]. The CC50 in series [5] (setting [7]) was more than 32000 nM.
As for `COC(=O)N[C@H](C(=O)N[C@@H](Cc1ccc(-c2ccc(OC)nc2)cc1)[C@@H](O)C[C@@H](Cc1ccccc1F)C(=O)N[C@H]1c2cccc(F)c2OC[C@H]1O)C(C)(C)C` [Compound 50], the EC50 in series [1] was 2.8 nM; in series [2], 2 nM; in series [3], 1.4 nM; in series [4], 1.1 nM; in series [6], 6.9 nM. Also, in series [5] (setting [7]), the CC50 is more than 32000 nM.
Take `COC(=O)N[C@H](C(=O)N[C@@H](Cc1ccc(-c2ccc(OC)nc2)cc1)[C@@H](O)C[C@@H](Cc1ccccc1F)C(=O)N[C@H]1c2cc(Cl)cc(F)c2OC[C@H]1O)C(C)(C)C` [Compound 61]: the 50% effective concentration (EC50) in series [1] came out at 4.1 nM; in series [2], 3 nM; in series [3], 2.1 nM; in series [4] it was 1.6 nM; in series [6] it was 16.1 nM. Moreover, in series [5] (setting [7]), the CC50 was more than 32000 nM.
On to `COC(=O)NC(C(=O)NC(Cc1ccc(-c2ccc(OC)nc2)cc1)C(O)CC(Cc1ccccc1F)C(=O)NC1c2cc(Cl)ccc2OCC1O)C(C)(C)C` (stereo not shown) [Compound 18], for which the concentration giving a half-maximal response (EC50) in series [1] came to 2.7 nM; in series [2] it was 3 nM; in series [3], 2 nM; in series [4] it was 1.6 nM; in series [6] it was 14 nM. Further, the CC50 in series [5] (setting [7]) and in series [5] (setting [8]) was more than 32000 nM throughout.
Regarding `COC(=O)N[C@H](C(=O)N[C@@H](Cc1ccc(-c2ccc(OC)nc2)cc1)[C@@H](O)C[C@@H](Cc1cccc(OC(F)(F)F)c1)C(=O)N[C@H]1c2ccccc2OC[C@H]1O)C(C)(C)C` [Compound 41], the EC50 in series [1] turned out to be 3 nM; in series [2], 2.4 nM; in series [3], 1.2 nM; in series [4], 1.1 nM; in series [6], 10.5 nM. Further, the cytotoxic concentration (CC50) in series [5] (setting [7]) and in series [5] (setting [8]) was more than 32000 nM throughout.
For the molecule `COc1ccc(-c2ccc(CC(NC(=O)C(NC(=O)CN3CCCC3)C(C)(C)C)C(O)CC(Cc3ccccc3F)C(=O)NC3C(C)CCCC3O)cc2)cn1` (stereo not shown) [Compound 97], the EC50 in series [1] was found to be 5.6 nM; in series [2], 4.7 nM; in series [3], 2.8 nM; in series [4] it was 2 nM; in series [6], 12.7 nM. Moreover, the half-maximal cytotoxic concentration (CC50) in series [5] (setting [7]) was more than 32000 nM.
In the case of `COC(=O)NC(C(=O)NC(Cc1ccc(-c2ccc(OC)nc2)cc1)C(O)CC(Cc1cccc(OC)c1)C(=O)NC1c2ccccc2OCC1O)C(C)(C)C` (stereo not shown) [Compound 17], the EC50 in series [1] is 1.9 nM; in series [2] it was 2 nM; in series [3], 1.2 nM; in series [4], 1.1 nM; in series [6] it was 6.4 nM. Moreover, the half-maximal cytotoxic concentration (CC50) in series [5] (setting [8]) was more than 32000 nM.
With `COC(=O)N[C@H](C(=O)N[C@@H](Cc1ccc(-c2ccc(N(C)C)nc2)cc1)[C@@H](O)C[C@@H](Cc1cccc(OC)c1)C(=O)N[C@H]1c2cc(F)ccc2OC[C@H]1O)C(C)(C)C` [Compound 26], the concentration giving a half-maximal response (EC50) in series [1] amounted to 5 nM; in series [2] it was 4.2 nM; in series [3] it was 3.4 nM; in series [4] it was 3.2 nM; in series [6], 15.4 nM. In series [5] (setting [8]), the CC50 was more than 32000 nM.
Regarding `COC(=O)N[C@H](C(=O)N[C@@H](Cc1ccc(-c2ccc(OC)nc2)cc1)[C@@H](O)C[C@@H](Cc1cccc(F)c1)C(=O)N[C@H]1c2cc(Cl)ccc2OC[C@H]1O)C(C)(C)C` [Compound 39], the concentration giving a half-maximal response (EC50) in series [1] turned out to be 3 nM; in series [2] it was 3.9 nM; in series [3], 2.1 nM; in series [4], 1.3 nM; in series [6], 16.4 nM. The CC50 in series [5] (setting [7]) and in series [5] (setting [8]) was more than 32000 nM each time.
For `Cc1cc(-c2ccc(C[C@H](NC(=O)O[C@H]3CO[C@H]4OCC[C@H]43)[C@@H](O)C[C@@H](Cc3ccccc3F)C(=O)N[C@H]3c4cc(Cl)ccc4OC[C@H]3O)cc2)cc(C)n1` [Compound 76], the EC50 in series [1] was determined as 2.9 nM; in series [2], 1.7 nM; in series [3], 1.5 nM; in series [4], 1.1 nM; in series [6] it was 20.5 nM. Also, the CC50 in series [5] (setting [7]) is more than 32000 nM.
Turning to `COC(=O)N[C@H](C(=O)N[C@@H](Cc1ccc(-c2ccc(OC)nc2)cc1)[C@@H](O)C[C@@H](Cc1ccccc1F)C(=O)N[C@H]1c2cc(F)cc(Cl)c2OC[C@H]1O)C(C)(C)C` [Compound 56], the concentration for a half-maximal effect (EC50) in series [1] worked out at 2.6 nM; in series [2], 1.4 nM; in series [3], 1.2 nM; in series [4] it was 0.7 nM; in series [6], 8.4 nM. Besides, in series [5] (setting [7]), the CC50 is more than 32000 nM.
In the case of `COC(=O)N[C@H](C(=O)N[C@@H](Cc1ccc(-c2ccc(OC)nc2)cc1)[C@@H](O)C[C@@H](Cc1ccccc1F)C(=O)N[C@H]1c2cccc(Cl)c2OC[C@H]1O)C(C)(C)C` [Compound 45], the EC50 in series [1] was 3.5 nM; in series [2] it was 1.2 nM; in series [3], 0.8 nM; in series [4], 0.7 nM; in series [6], 5.2 nM. Also, in series [5] (setting [7]), the CC50 was more than 32000 nM.
